According to ChEMBL document CHEMBL4138146, “A Schmidt rearrangement-mediated synthesis of novel tetrahydro-benzo[1,4]diazepin-5-ones as potential anticancer and antiprotozoal agents” (Eur J Med Chem, 2017):

Tests used:
Type in all cases: functional
IGROV-1 = assay: Growth inhibition of human IGROV1 cells incubated for 48 hrs by sulforhodamine B assay; conditions: IGROV-1, 48 h
BT-549 = assay: Growth inhibition of human BT549 cells incubated for 48 hrs by sulforhodamine B assay; conditions: BT-549, 48 h
LOX IMVI = assay: Growth inhibition of human LOXIMVI cells incubated for 48 hrs by sulforhodamine B assay
OVCAR-5 = assay: Growth inhibition of human OVCAR5 cells incubated for 48 hrs by sulforhodamine B assay; conditions: OVCAR-5, 48 h
NCI-H23 = assay: Growth inhibition of human NCI-H23 cells incubated for 48 hrs by sulforhodamine B assay; conditions: NCI-H23, 48 h
TK-10 = assay: Growth inhibition of human TK10 cells incubated for 48 hrs by sulforhodamine B assay; conditions: TK-10, 48 h
SK-OV-3 = assay: Growth inhibition of human SKOV3 cells incubated for 48 hrs by sulforhodamine B assay; conditions: SK-OV-3, 48 h
SF-295 = assay: Growth inhibition of human SF295 cells incubated for 48 hrs by sulforhodamine B assay; conditions: SF-295, 48 h
NCI-H522 = assay: Growth inhibition of human NCI-H522 cells incubated for 48 hrs by sulforhodamine B assay; conditions: NCI-H522, 48 h
Hs-578T = assay: Growth inhibition of human Hs 578T cells incubated for 48 hrs by sulforhodamine B assay
SF-268 = assay: Growth inhibition of human SF268 cells incubated for 48 hrs by sulforhodamine B assay; conditions: SF-268, 48 h
HCT-15 = assay: Growth inhibition of human HCT15 cells incubated for 48 hrs by sulforhodamine B assay; conditions: HCT-15, 48 h, read-out: LC50 (the source's name)
COLO 205 = assay: Growth inhibition of human COLO205 cells incubated for 48 hrs by sulforhodamine B assay; conditions: COLO 205, 48 h
SN12C = assay: Growth inhibition of human SN12C cells incubated for 48 hrs by sulforhodamine B assay
MDA-MB-435 = assay: Growth inhibition of human MDA-MB-435 cells incubated for 48 hrs by sulforhodamine B assay; conditions: MDA-MB-435, 48 h
786-0 = assay: Growth inhibition of human 786-0 cells incubated for 48 hrs by sulforhodamine B assay; conditions: 786-0, 48 h
MOLT-4 = assay: Growth inhibition of human MOLT4 cells incubated for 48 hrs by sulforhodamine B assay; conditions: MOLT-4, 48 h
EKVX = assay: Growth inhibition of human EKVX cells incubated for 48 hrs by sulforhodamine B assay
HT-29 = assay: Growth inhibition of human HT-29 cells incubated for 48 hrs by sulforhodamine B assay; conditions: HT-29, 48 h
SK-MEL-5 = assay: Growth inhibition of human SK-MEL-5 cells incubated for 48 hrs by sulforhodamine B assay; conditions: SK-MEL-5, 48 h
MDA-MB-231 = assay: Growth inhibition of human MDA-MB-231 cells incubated for 48 hrs by sulforhodamine B assay; conditions: MDA-MB-231, 48 h
DU-145 = assay: Growth inhibition of human DU145 cells incubated for 48 hrs by sulforhodamine B assay; conditions: DU-145, 48 h
UO-31 = assay: Growth inhibition of human UO31 cells incubated for 48 hrs by sulforhodamine B assay; conditions: UO-31, 48 h
NCI-H322M = assay: Growth inhibition of human NCI-H322M cells incubated for 48 hrs by sulforhodamine B assay
SW-620 = assay: Growth inhibition of human SW620 cells incubated for 48 hrs by sulforhodamine B assay; conditions: SW-620, 48 h
SNB-75 = assay: Growth inhibition of human SNB75 cells incubated for 48 hrs by sulforhodamine B assay; conditions: SNB-75, 48 h
NCI-H226 = assay: Growth inhibition of human NCI-H226 cells incubated for 48 hrs by sulforhodamine B assay; conditions: NCI-H226, 48 h
KM12 = assay: Growth inhibition of human KM12 cells incubated for 48 hrs by sulforhodamine B assay; conditions: KM12, 48 h
HL-60(TB) = assay: Growth inhibition of human HL-60(TB) cells incubated for 48 hrs by sulforhodamine B assay; conditions: HL-60, 48 h
OVCAR-4 = assay: Growth inhibition of human OVCAR4 cells incubated for 48 hrs by sulforhodamine B assay; conditions: OVCAR-4, 48 h
NCI/ADR-RES = assay: Growth inhibition of human NCI/ADR-RES cells incubated for 48 hrs by sulforhodamine B assay; conditions: read-out: LC50 (the source's name)
SR = assay: Growth inhibition of human SR cells incubated for 48 hrs by sulforhodamine B assay
MDA-MB-468 = assay: Growth inhibition of human MDA-MB-468 cells incubated for 48 hrs by sulforhodamine B assay; conditions: MDA-MB-468, 48 h
M14 = assay: Growth inhibition of human M14 cells incubated for 48 hrs by sulforhodamine B assay; conditions: M14, 48 h
HCT-116 = assay: Growth inhibition of human HCT116 cells incubated for 48 hrs by sulforhodamine B assay; conditions: HCT-116, 48 h
OVCAR-3 = assay: Growth inhibition of human OVCAR3 cells incubated for 48 hrs by sulforhodamine B assay; conditions: OVCAR-3, 48 h
MCF7 = assay: Growth inhibition of human MCF7 cells incubated for 48 hrs by sulforhodamine B assay; conditions: MCF7, 48 h
[1] = read-out: LC50 (the source's name)

In the case of `COc1cccc2c1C(=O)c1c(O)c3c(c(O)c1C2=O)C[C@@](O)(C(=O)CO)C[C@@H]3O[C@H]1C[C@H](N)[C@H](O)[C@H](C)O1` [DOXORUBICIN], the GI50 (IGROV-1) is reported as 170 nM, the CC50 (IGROV-1; [1]) is reported as 100000 nM and the GI50 (BT-549) is reported as 230 nM. The GI50 (LOX IMVI) was 70 nM, the GI50 (OVCAR-5) was 410 nM and the CC50 (OVCAR-5; [1]) was 100000 nM. It also gave a GI50 (NCI-H23) of 150 nM, a GI50 (TK-10) of 380 nM and a GI50 (SK-OV-3) of 220 nM. It also gave a CC50 (SK-OV-3; [1]) of 100000 nM, a GI50 (SF-295) of 100 nM and a GI50 (NCI-H522) of 30 nM. The CC50 (NCI-H522; [1]) was 2800 nM, the GI50 (Hs-578T) was 330 nM and the GI50 (SF-268) was 100 nM. The CC50 (HCT-15) was 100000 nM, the GI50 (COLO 205) was 180 nM and the GI50 (SN12C) was 70 nM. The GI50 (MDA-MB-435) was 250 nM, the GI50 (786-0) was 130 nM and the GI50 (MOLT-4) was 30 nM. The CC50 (MOLT-4; [1]) was 100000 nM, the GI50 (EKVX) was 410 nM and the GI50 (HT-29) was 120 nM. For the same compound, the GI50 (SK-MEL-5) was 140 nM, the CC50 (SK-MEL-5; [1]) was 8150 nM and the GI50 (MDA-MB-231) was 510 nM. The GI50 (DU-145) was 110 nM, the CC50 (DU-145; [1]) was 100000 nM and the GI50 (UO-31) was 490 nM. It also gave a GI50 (NCI-H322M) of 540 nM, a GI50 (SW-620) of 90 nM and a GI50 (SNB-75) of 70 nM. It also gave a CC50 (SNB-75; [1]) of 3300 nM, a GI50 (NCI-H226) of 50 nM and a CC50 (NCI-H226; [1]) of 6400 nM. It also gave a GI50 (KM12) of 270 nM, a GI50 (HL-60(TB)) of 120 nM and a GI50 (OVCAR-4) of 370 nM. For the same compound, the CC50 (NCI/ADR-RES) was 100000 nM, the GI50 (SR) was 30 nM and the GI50 (MDA-MB-468) was 50 nM. The GI50 (M14) was 180 nM, the GI50 (HCT-116) was 80 nM and the GI50 (OVCAR-3) was 390 nM. It also gave a GI50 (MCF7) of 40 nM.
